Structures are written as SMILES.

The test system of one experiment is HCT116 colon cancer cells. As to the kind of experiment: KSP Cellular Assay (percent of cells staining positive for Phos-Histone H3 / Phos-MPM2). It is filed as cell-based. Conditions: Homo sapiens, HCT-116, 16 h, Table 101; HCT116 cells, 16 hours with drug; read-out: ED50 (nM) Range. The method in brief: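 HCT116 cells treated with compound for 16 hours, fixed and stained with Hoechst plus Phos-Histone H3 (ser10) and Phos-MPM2 antibodies. Percent positive cells from immunofluorescence imaging; EC50 by sigmoidal nonlinear regression over 8-point dilutions in duplicate.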
In the case of `CC(=O)N1N=C(c2cc(F)ccc2F)S[C@]12CCc1ccccc12` [compound 119], the EC50 is 500 to 1000 nM. For the compound `CC(=O)N1CCC2(SC(c3cc(F)ccc3F)=NN2C(C)=O)c2ccccc21` (stereo not drawn) [compound 112], the EC50 was over 1000 nM. With `CC(=O)N1N=C(c2cc(F)ccc2F)SC12C(=O)Nc1ccccc12` (stereo not drawn) [compound 127], the EC50 is over 1000 nM. As to `CC(=O)N1N=C(c2cc(F)ccc2F)SC12CCCCc1ccccc12` (stereo not drawn) [compound 122], the EC50 is over 1000 nM. With `CC(=O)N1N=C(c2cc(F)ccc2F)SC12CCCc1cccnc12` (stereo not drawn) [compound 124], the EC50 was over 1000 nM.

The experiment is the same for the next values; noted with them: Homo sapiens, HCT-116, 16 h, Table 401; HCT116 cells, 16 hours with drug; read-out: ED50 (nM) Range.
In the case of `O=C(CCCN1CCCCC1)N1N=C(c2cc(F)ccc2F)SC12CCc1ccccc12` (stereo not drawn) [compound 456], the EC50 is at most 500 nM. As for `CC(C)[C@H](O)C(=O)N1N=C(c2cc(F)ccc2F)SC12CCCc1ccsc12` (stereo partly drawn) [compound 424], the EC50 is over 1000 nM.

Turning to `O=C(CCCN1CCCC1)N1N=C(c2cc(F)ccc2F)SC12CCc1ccccc12` (stereo not drawn) [compound 454], the EC50 was at most 500 nM.

For the compound `C[C@H](O)C(=O)N1N=C(c2cc(F)ccc2F)SC12CCc1ccccc12` (stereo partly drawn) [compound 436], the EC50 is at most 500 nM. Turning to `O=C(C(F)F)N1N=C(c2cc(F)ccc2F)SC12CCOc1ccccc12` (stereo not drawn) [compound 471], the EC50 is at most 500 nM. On to `NC1CCC(C(=O)N2N=C(c3cc(F)ccc3F)SC23CCc2ccccc23)CC1` (stereo not drawn) [compound 439], for which the EC50 lay within 500 to 1000 nM. On the same count and under the same terms, the figure for `O=C(CCC1CCCNC1)N1N=C(c2cc(F)ccc2F)SC12CCc1ccccc12` (stereo not drawn) [compound 448] is over 1000 nM; for `N[C@H]1C[C@H](C(=O)N2N=C(c3cc(F)ccc3F)SC23CCc2ccccc23)C1` (stereo partly drawn) [compound 502] it is at most 500 nM. Take `O=C(CC1CCNC1)N1N=C(c2cc(F)ccc2F)SC12CCOc1ccccc12` (stereo not drawn) [compound 496]: the EC50 is at most 500 nM. As for `O=C(CCC1CCCCN1)N1N=C(c2cc(F)ccc2F)SC12CCOc1ccccc12` (stereo not drawn) [compound 497], the EC50 is 500 to 1000 nM. As for `O=C(CCCN1CCOCC1)N1N=C(c2cc(F)ccc2F)SC12CCc1ccccc12` (stereo not drawn) [compound 457], the EC50 is at most 500 nM.

Still in this experiment, the particulars now being: Homo sapiens, HCT-116, 16 h, Table 701; HCT116 cells, 16 hours with drug; read-out: EC50 (nM) Range.
In the case of `CCN1N=C(c2cc(F)ccc2F)SC12CCOc1ccccc12` (stereo not drawn) [compound 703], the EC50 was over 1000 nM.

Still in this experiment, the particulars now being: Homo sapiens, HCT-116, 16 h, Table 801; HCT116 cells, 16 hours with drug; read-out: EC50 (nM) Range.
As to `CC(=O)N1N=C(c2cc(F)ccc2F)S[C@]12c1cc(F)ccc1OC[C@@H]2CCN` [compound 802], the EC50 was over 1000 nM. For the compound `CC(=O)N1N=C(c2cc(F)ccc2F)S[C@]12c1cc(Cl)ccc1OC[C@@H]2CCN` [compound 812], the EC50 is over 1000 nM.

In the case of `CC(=O)N1N=C(c2cc(F)ccc2F)S[C@@]12c1cc(Cl)ccc1OC[C@H]2CCN` [compound 811], the EC50 is at most 500 nM. On to `CC(=O)N1N=C(c2cc(F)ccc2F)S[C@@]12c1cc(F)ccc1OC[C@@H]2CCN` [compound 804], for which the EC50 is at most 500 nM.

The same experiment, now with this note: Homo sapiens, HCT-116, 16 h, table of Example 1001; HCT116 cells, 16 hours with drug; read-out: EC50 (nM) Range.
As for `CC(=O)N1N=C(c2cc(F)ccc2F)S[C@]12c1ccccc1OC[C@@H]2CCCO` (single isomer, unassigned) [compound 1003], the EC50 was over 1000 nM.

The experiment is the same for the next values; noted with them: Homo sapiens, HCT-116, 16 h, table of Example 1801 (headed Table 1201); HCT116 cells, 16 hours with drug; read-out: EC50 (nM) Range.
In the case of `CC(=O)N1N=C(c2ccccc2F)S[C@@]12c1ccccc1OC[C@H]2CCN` [compound 1802], the EC50 was at most 500 nM. Still for that read-out and setting: the figure for `CC(=O)N1N=C(c2ccc(F)cc2F)S[C@]12c1ccccc1OC[C@@H]2CCN` [compound 1816] is over 1000 nM. Take `CC(=O)N1N=C(c2cccc(Cl)c2)S[C@]12c1ccccc1OC[C@@H]2CCN` [compound 1813]: the EC50 was over 1000 nM.

Consider `CC(=O)N1N=C(c2ccccc2)S[C@@]12c1ccccc1OC[C@H]2CCN` [compound 1808], for which the EC50 is at most 500 nM.

The experiment is the same for the next values; noted with them: Homo sapiens, HCT-116, 16 h, table of Example 1901; HCT116 cells, 16 hours with drug; read-out: EC50 (nM) Range.
In the case of `COCCOCC(=O)N1N=C(c2cc(F)ccc2F)S[C@]12c1cc(F)ccc1OC[C@@H]2CCN` [compound 1905], the EC50 is over 1000 nM.

The experiment is the same for the next values; noted with them: Homo sapiens, HCT-116, 16 h, table of Example 2101; HCT116 cells, 16 hours with drug; read-out: EC50 (nM) Range.
On to `CCOC(=O)N1N=C(c2cc(F)ccc2F)S[C@@]12c1ccccc1OC[C@H]2CCN` [compound 2103], for which the EC50 was over 1000 nM.

Staying with this experiment, now noted: Homo sapiens, HCT-116; table of Example 2001; HCT116 cells, 16 hours with drug; read-out: EC50 (nM) Range.
For the compound `NCC[C@H]1COc2ccccc2[C@]12SC(c1cc(F)ccc1F)=NN2C(=O)CF` [compound 2001], the EC50 is at most 500 nM.

The experiment is the same for the next values; noted with them: Table 401; HCT116 cells, 16 hours with drug; read-out: ED50 (nM) Range.
Consider `NC1CCC(C(=O)N2N=C(c3cc(F)ccc3F)SC23CCc2ccccc23)CC1` (stereo not drawn) [compound 445], for which the EC50 was over 1000 nM.

Source of the values: patent publication US8796460B2, “Compounds for inhibiting KSP kinesin activity” (Mercky Sharp & Dohme Corp., priority 2007, dated 2014).
